Tests used:
[1] = Organ distribution in mice by X-band ESR; conditions: for Blood (% dose) / Brain (% dose): vena caudalis, 7.5 μmol (2.5 μmol for 3-carboxy-PROXYL acetoxymethyl ester)
[2] = in vitro; type: in vitro ADME; conditions: carboxylesterase, 37° C., mean ± SD, n = 3, read-out: Hydrolysis Rate; for metabolised at 10 s: 10 sec., SD printed on next line: 0.43 (methyl ester), 11.9 (acetoxymethyl ester); for metabolised at 1 min: SD printed on next line: 0.34 (methyl ester), 3.4 (acetoxymethyl ester); for metabolised at 0.05 h: 3 min., 1.1 (acetoxymethyl ester); for metabolised at 0.05 h / metabolised at 5 min: SD: 0.49 (methyl ester); for metabolised at 5 min: 2.2 (acetoxymethyl ester); for metabolised at 10 min: SD printed on next line: 0.08 (methyl ester); for metabolised at 10 min / metabolised at 0.5 h: 0.0 (acetoxymethyl ester); for metabolised at 0.5 h: 30 min., SD printed on next line: 1.51 (methyl ester)
Procedure: (§1) Changes with time in the hydrolysis rate of 3-carboxy-PROXYL methyl ester and 3-carboxy-PROXYL acetoxymethyl ester by an esterase were examined.
(§2) 200 μl of a 10 mM test sample solution was mixed with 800 μl of 5 micro units of an esterase (carboxy esterase, carboxylic ester hydrolase; EC 3.1.1.1 manufactured by Sigma, catalogue No. E3128). The mixture was incubated at 37° C. for 10 seconds, 1 minute, 3 minutes, 5 minutes, 10 minutes, and 30 minutes, respectively. The mixture was then analyzed by HPLC to calculate the hydrolysis rate from the amount ratio of the unchanged product to 3-carboxy-PROXYL which is a hydrolysate thereof.
(§3) HPLC was performed using a UV-VIS detector (UV-8020), a dual pump (CCPS), a column (ODS-80Ts), and a TSK precolumn (BSA-ODS) all manufactured by Tosoh Corp.
(§4) Mobile phase: 20 mM phosphate buffer solution (pH 2.2)/methanol=60/40

[3] = system: esterase (carboxy esterase, carboxylic ester hydrolase; EC 3.1.1.1); assay: in vitro; type: in vitro ADME
Procedure: as §1, §2, §3, §4

[4] = in vivo; conditions: mouse, iv
[5] = system: mouse brain; type: in vivo; conditions: 2.5 μmol, vena caudalis
Procedure: . An L band ESR-CT image of the head axial transverse section was measured under the following conditions.
Measuring device: Electron spin resonance spectrometry
"JES-RE31" (manufactured by JEOL Ltd.)
Magnetic field gradient: 0.45 mT/cm
Projection: 18 (every 10°)
Magnetic field modulation: 100 kHz
Time constant: 0.003 second
Measurement temperature: room temperature

Row | brain to blood ratio (ratio of % dose/g of the brain to % dose/g of the blood) ([1]; after 10 minutes) | Compound | Blood (% dose) ([1]; 3 min.) | Brain (% dose) ([1]; 3 min.) | Blood (% dose) ([1]; 10 min.) | Brain (% dose) ([1]; 10 min.) | Blood (% dose) ([1]; 30 min.) | Brain (% dose) ([1]; 30 min.) | metabolised at 10 s [2] | metabolised at 1 min [2] | metabolised at 0.05 h [2] | metabolised at 5 min [2] | metabolised at 10 min [2] | metabolised at 0.5 h [2] | Speed of hydrolysis by esterase compared with methyl ester, in words [3] | Hydrolysis by esterase, in words ([3]; after 10 seconds) | Kp at 10 min [4] | Kp at 0.5 h [4] | L band ESR-CT: concentration inside the brain [5] | L band ESR-CT: concentration outside the brain [5]
1 | 0.84-1.78 | 2-ethyl-2,5,5-trimethyloxazolidinyloxy | 4.52 % dose | 1.63 % dose | 3.69 % dose | 1.64 % dose | 0.81 % dose | 0.52 % dose |  |  |  |  |  |  |  |  |  |  |  | 
2 |  | CC(=O)OCOC(=O)C1CC(C)(C)N([O])C1(C)C (centres unmarked) [3-carboxy-PROXYL acetoxymethyl ester, acetoxymethyl-2,2,5,5-tetramethylpyrrolidinyloxy-3-carboxylate] | 6.28 % dose | 2.26 % dose | 4.41 % dose | 2.77 % dose | 4.21 % dose | 1.98 % dose | 30.1% | 70.8% | 93.9% | 96.7% | 100% | 100% | hydrolyzed by an esterase in a shorter period of time than 3-carboxy-PROXYL methyl ester | slightly hydrolyzed | 3.14 | 2.88 | still more highly concentrated inside the brain | decreased accumulation outside the brain
3 |  | CCOC(=O)C1CC(C)(C)N([O])C1(C)C (centres unmarked) [3-carboxy-PROXYL ethyl ester] | 3.46 % dose | 0.79 % dose | 2.92 % dose | 0.74 % dose | 3.38 % dose | 0.12 % dose |  |  |  |  |  |  |  |  | 0.84 to 1.78 |  |  | 
4 |  | COC(=O)C1CC(C)(C)N([O])C1(C)C (centres unmarked) [3-carboxy-PROXYL methyl ester] | 4.62 % dose | 1.31 % dose | 2.68 % dose | 0.67 % dose | 2.18 % dose | 0.21 % dose | 0.05% | 0.4% | 0.8% | 1.35% | 2.54% | 8.25% |  |  | 0.84 to 1.78 |  | highly concentrated inside the brain | concentrated outside the brain
